Measurements reported in patent publication US5766914A, “Method of producing and purifying enzymes” (Michigan State University, priority 1995, dated 1998).

Legend:
[1] = system: CotC-β-galactosidase fusion (47 codons of B. subtilis cotC, SEQ ID NO:4, fused to E. coli lacZ) in the spore coat of spores from the cotC-lacZ fusion strain of …; test: β-galactosidase assay, KM for ONPG, spore-immobilized fusion; type: biochemical, Escherichia coli / Bacillus subtilis; conditions: 0.1M sodium phosphate pH 7.5, room temperature, Michaelis-Menten curve through normalized data, FIG. 3
Description: (§1) β-galactosidase assay. The assay is based on that of Sambrook, et al. (J. Sambrook, et al., "Molecular Cloning (A laboratory manual)", 2nd Ed. Cold Spring Harbor Laboratory Press, Cold Spring Harbor, New York, 1989) with minor modifications. The assay mixture contains 0.1M sodium phosphate, pH 7.5, containing 3 mM o-nitrophenyl β-D-galactopyranoside […] (ONPG), 40.5 mM 2-mercaptoethanol and 90 μM MgCl2 in a total volume of 600 μL. Reactions were initiated by addition of enzyme, and carried out at room temperature unless otherwise noted. Activity was determined from the slopes of initial rates monitored at 420 nm. O-nitrophenol, the product of β-galactosidase-catalyzed hydrolysis of ONPG, has a molar extinction coefficient at 420 nm under assay conditions of 3.1×10^3 M^-1 cm^-1 (R. C. Weast, "Handbook of Chemistry and Physics", 60th ed. CRC Press, Boca Raton, Fla., 1979). β-galactosidase activity is reported in units of μmol ONPG hydrolyzed/min.
cot-lacZ fusions. Strains bearing the cotC-lacZ and cotD-lacZ fusions were generously provided by L. Kroos. […]
The cotC-lacZ fusion includes 355 bp upstream of the open reading frame of cotC and 47 codons of the open reading frame fused in frame to lacZ from plasmid pSGMU31. The cotD-lacZ fusion includes 237 upstream bp and 58 codons of the open reading frame of cotD. […]

[2] = target: native β-galactosidase (soluble; lacZ of Escherichia coli) (Escherichia coli, UniProt P00722); test: β-galactosidase assay, KM for ONPG, native enzyme; type: biochemical; conditions: 0.1M sodium phosphate pH 7.5, room temperature, Michaelis-Menten curve through normalized data, FIG. 3
Description: as §1
Catalytic properties of β-galactosidase in the spore coat. FIG. 3 diagrams KM values for native β-galactosidase (.circle-solid.) and the CotC-β-galactosidase fusion in the spore coat of spores from the cotC-lacZ fusion strain (.box-solid.). Data sets were normalized to the same Vmax value, set equal to 100. […]

Sequence of native β-galactosidase (soluble; lacZ of Escherichia coli) (P00722 2-1024 limits assumed): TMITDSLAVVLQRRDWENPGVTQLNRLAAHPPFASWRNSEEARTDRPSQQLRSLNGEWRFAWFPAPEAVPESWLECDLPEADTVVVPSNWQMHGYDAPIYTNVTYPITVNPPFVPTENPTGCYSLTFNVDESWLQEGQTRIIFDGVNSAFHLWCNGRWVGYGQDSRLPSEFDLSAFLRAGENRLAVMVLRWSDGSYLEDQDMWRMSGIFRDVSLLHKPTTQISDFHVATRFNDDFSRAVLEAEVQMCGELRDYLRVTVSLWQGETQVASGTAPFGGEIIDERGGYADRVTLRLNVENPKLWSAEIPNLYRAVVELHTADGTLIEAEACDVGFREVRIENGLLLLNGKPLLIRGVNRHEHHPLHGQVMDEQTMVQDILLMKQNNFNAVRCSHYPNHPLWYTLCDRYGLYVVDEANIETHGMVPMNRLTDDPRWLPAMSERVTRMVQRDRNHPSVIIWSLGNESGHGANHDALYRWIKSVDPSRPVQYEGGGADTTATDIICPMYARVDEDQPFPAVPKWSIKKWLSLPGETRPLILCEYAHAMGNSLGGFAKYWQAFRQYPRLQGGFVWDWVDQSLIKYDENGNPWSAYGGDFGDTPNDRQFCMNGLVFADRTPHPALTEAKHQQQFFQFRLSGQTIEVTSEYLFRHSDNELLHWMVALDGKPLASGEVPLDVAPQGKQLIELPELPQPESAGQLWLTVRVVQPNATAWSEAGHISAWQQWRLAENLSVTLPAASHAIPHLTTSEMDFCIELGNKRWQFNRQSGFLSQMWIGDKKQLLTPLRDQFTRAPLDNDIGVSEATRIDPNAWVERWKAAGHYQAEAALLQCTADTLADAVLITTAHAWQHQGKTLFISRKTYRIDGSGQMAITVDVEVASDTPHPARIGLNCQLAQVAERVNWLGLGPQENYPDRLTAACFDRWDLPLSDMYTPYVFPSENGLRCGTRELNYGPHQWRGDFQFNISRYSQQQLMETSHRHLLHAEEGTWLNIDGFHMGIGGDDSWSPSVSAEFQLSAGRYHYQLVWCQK

Structure (SMILES): O=[N+]([O-])c1ccccc1O[C@@H]1O[C@H](COP(=O)(O)O)[C@H](O)[C@H](O)[C@H]1O [ONPG, o-nitrophenyl β-D-galactopyranoside 6-phosphate]
- Km [1]: 400 µM
- Km [2]: 400 µM
